From patent US10124004B2, “Pyrido[3,4-d]pyrimidine derivative and pharmaceutically acceptable salt thereof” (Teijin Pharma Limited, priority 2015, dated 2018)
Where two headings read alike, the source gives them in different places.

Experiments:
CDK2/cyclin A2 = target: T1, CDK2/cyclin A2 (Homo sapiens, UniProt P24941); assay: Human CDK2/cyclin A2 inhibitory activity (QS S Assist CDK2/Cyclin A2_FP Kit, IMAP fluorescence polarization); format: biochemical
T1 construct: purchased Carna Biosciences, Inc. QS S Assist CDK2/Cyclin A2_FP Kit
In short: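 Kinase activity read as fluorescence polarization (485/535 nm) after phosphorylated fluorescent substrate binds IMAP reagent (30 min, RT, dark). Enzyme (2.5 ng/well) reacted 60 min at RT with ATP/substrate/metal in HEPES pH 7.4 buffer with Tween 20 and DTT; no-enzyme wells define 0% activity; IC50 by curve fit.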

CDK4/cyclin D3 = target: T2, CDK4/cyclin D3 (Homo sapiens, UniProt P11802); assay: Human CDK4/cyclin D3 inhibitory activity (QS S Assist CDK4/Cyclin D3_FP Kit, IMAP fluorescence polarization); format: biochemical
T2 construct: purchased Carna Biosciences, Inc. QS S Assist CDK4/Cyclin D3_FP Kit
T2 sequence (P11802 whole entry): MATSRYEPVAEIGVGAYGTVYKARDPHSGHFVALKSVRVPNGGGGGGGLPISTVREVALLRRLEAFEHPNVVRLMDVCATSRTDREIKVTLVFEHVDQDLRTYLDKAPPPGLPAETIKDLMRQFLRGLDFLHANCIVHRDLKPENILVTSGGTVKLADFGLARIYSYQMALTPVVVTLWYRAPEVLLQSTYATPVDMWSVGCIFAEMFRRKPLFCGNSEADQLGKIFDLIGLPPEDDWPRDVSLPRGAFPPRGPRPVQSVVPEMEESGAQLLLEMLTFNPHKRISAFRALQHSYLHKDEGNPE
T2 sequence (P30281 whole entry partner): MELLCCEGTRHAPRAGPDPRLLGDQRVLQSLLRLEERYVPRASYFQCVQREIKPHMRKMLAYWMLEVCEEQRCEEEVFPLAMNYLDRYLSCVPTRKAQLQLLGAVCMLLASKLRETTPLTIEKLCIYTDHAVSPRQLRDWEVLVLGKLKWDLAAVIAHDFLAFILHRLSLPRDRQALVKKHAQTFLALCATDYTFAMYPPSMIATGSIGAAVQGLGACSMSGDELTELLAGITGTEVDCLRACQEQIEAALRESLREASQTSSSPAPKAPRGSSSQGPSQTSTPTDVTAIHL
In short: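 IMAP fluorescence-polarization kinase assay with kit ATP/substrate/metal mix and 12.5 to 25 ng/well enzyme in 20 mM HEPES pH 7.4, 0.01% Tween20, 2 mM DTT. Reaction ran 45 min at room temperature, then binding reagent was added for 30 min in the dark. IC50 was taken from dose-response fits of percent inhibition.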

[1] = 50% inhibitory concentration against CDK2/cyclin A2, given as class symbol
[2] = 50% inhibitory concentration against CDK4/cyclin D3, given as class symbol
[3] = Human CDK2/cyclin A2 inhibitory activity, read-out: CDK2 Activity symbol
[4] = Human CDK4/cyclin D3 inhibitory activity, read-out: CDK4 Activity symbol

Row | SMILES | IC50 (CDK2/cyclin A2; [1]) [µM] | IC50 (CDK4/cyclin D3; [2]) [µM] | IC50 (CDK2/cyclin A2; [3]) [µM] | IC50 (CDK4/cyclin D3; [4]) [µM]
1 | CC(C)Nc1nc([C@@H](C)O)cc2cnc(Nc3ccc(N4CC(C)NCC4=O)cn3)nc12 (some centres unmarked) [Compound 1032] | ≥ 0.1 | < 0.01 | – | –
2 | CC(=O)NCCc1ccc(Nc2ncc3cc(C(F)F)nc(NC(C)C)c3n2)nc1 [Compound 150] | – | – | 0.01 to 0.1 | < 0.01
3 | C[C@@H](O)c1cc2cnc(Nc3ccc(CN4CCNCC4)cn3)nc2c(NC2CCCC2C(=O)O)n1 (some centres unmarked) [Compound 324] | – | – | ≥ 0.1 | ≥ 0.1
4 | C[C@@H](O)c1cc2cnc(Nc3ccc(N4CCNCC4)nn3)nc2c(NC2CCOCC2)n1 [Compound 250] | – | – | ≥ 0.1 | < 0.01
5 | COCC(C)(C)Nc1nc([C@@H](C)O)cc2cnc(Nc3ccc(CN4CCOCC4)cn3)nc12 [Compound 180] | – | – | ≥ 0.1 | 0.01 to 0.1
6 | C[C@H]1CC[C@H](Nc2nc(C(F)F)cc3cnc(Nc4ccc(CN5CCC(C(=O)O)CC5)cn4)nc23)CC1 [Compound 839] | ≥ 0.1 | < 0.01 | – | –
7 | CC(C)Nc1nc([C@@H](C)O)cc2cnc(Nc3ccc(CN4CCC(O)C4)cn3)nc12 (some centres unmarked) [Compound 1041] | ≥ 0.1 | < 0.01 | – | –
8 | CC(C)Nc1nc([C@@H](C)O)cc2cnc(Nc3ccc(CN4CCN(C(=O)CN(C)C)CC4)cn3)nc12 [Compound 1194] | ≥ 0.1 | < 0.01 | – | –
9 | CC(C)Nc1nc([C@@H](C)O)cc2cnc(Nc3ccc(N4CCN[C@@H](C)C4=O)cn3)nc12 [Compound 507] | – | – | ≥ 0.1 | < 0.01
10 | CO[C@H](C)c1cc2cnc(Nc3ccc(CN4CCN(CCO)CC4)cn3)nc2c(N[C@H]2CCCOC2)n1 [Compound 860] | ≥ 0.1 | < 0.01 | – | –
11 | CC(C)Nc1nc(C2CCOC2)cc2cnc(Nc3ccc(N4CCNCC4)cn3)nc12 (centres unmarked) [Compound 1007] | ≥ 0.1 | < 0.01 | – | –
12 | O=C(O)C1CCN(Cc2ccc(Nc3ncc4cc(C(F)F)nc(N[C@H]5CCCOC5)c4n3)nc2)CC1 [Compound 806] | ≥ 0.1 | < 0.01 | – | –
13 | CCNc1nc([C@@H](C)O)cc2cnc(Nc3ccc(CN4CCCN(CCO)CC4)cn3)nc12 [Compound 1216] | ≥ 0.1 | < 0.01 | – | –
14 | C[C@@H](O)c1cc2cnc(Nc3ccc(N4CCNCC4=O)cn3)nc2c(NC2CC2)n1 [Compound 1044] | ≥ 0.1 | 0.01 to 0.1 | – | –
15 | c1cc(Nc2ncc3cc(C4CCOC4)nc(N[C@H]4CCCOC4)c3n2)ncc1CN1CCNCC1 (single isomer, unassigned) [Compound 940] | ≥ 0.1 | < 0.01 | – | –
16 | CC(C)Nc1nc(C(F)F)cc2cnc(Nc3ccc(N4CCNC(=O)C4)cn3)nc12 [Compound 83] | – | – | 0.01 to 0.1 | < 0.01
17 | CC(C)Nc1nc([C@@H](C)O)c(Cl)c2cnc(Nc3ccc(N4CCNCC4=O)cn3)nc12 [Compound 247] | – | – | ≥ 0.1 | < 0.01
18 | C[C@@H](O)c1cc2cnc(Nc3ccc(CN4CCCC(O)C4)cn3)nc2c(N[C@H]2CCCOC2)n1 (some centres unmarked) [Compound 1128] | ≥ 0.1 | < 0.01 | – | –
19 | CCCCNc1nc([C@@H](C)O)cc2cnc(Nc3ccc(CN4CCC(CO)CC4)cn3)nc12 [Compound 1148] | ≥ 0.1 | < 0.01 | – | –
20 | CCCNc1nc([C@@H](C)OC)cc2cnc(Nc3ccc(CN4CCN(CCO)CC4)cn3)nc12 [Compound 852] | ≥ 0.1 | < 0.01 | – | –

Row | SMILES | IC50 (CDK2/cyclin A2; [1]) [µM] | IC50 (CDK4/cyclin D3; [2]) [µM] | IC50 (CDK2/cyclin A2; [3]) [µM] | IC50 (CDK4/cyclin D3; [4]) [µM]
21 | CCCNc1nc([C@@H](C)O)cc2cnc(Nc3ccc(CN4CCN(CCO)C[C@H]4C)cn3)nc12 [Compound 1076] | ≥ 0.1 | < 0.01 | – | –
22 | CC(C)Nc1nc(C(F)F)cc2cnc(Nc3ccc(N4CCC(CCCO)CC4)cn3)nc12 [Compound 51] | – | – | ≥ 0.1 | 0.01 to 0.1
23 | CC(C)Nc1nc(C(F)F)cc2cnc(Nc3ccc(CN(C)S(C)(=O)=O)cn3)nc12 [Compound 141] | – | – | ≥ 0.1 | < 0.01
24 | CCCCNc1nc(C(C)=O)cc2cnc(Nc3ccc(CN4CCN(CCO)CC4)cn3)nc12 [Compound 975] | ≥ 0.1 | 0.01 to 0.1 | – | –
25 | CC(C)Nc1nc(C(F)F)cc2cnc(Nc3ccc(N4CCC(C(=O)O)CC4)cn3)nc12 [Compound 90] | – | – | 0.01 to 0.1 | 0.01 to 0.1
26 | CC(C)Nc1nc(C2CCOC2)cc2cnc(Nc3ccc(CN4CCN(CC#N)CC4)cn3)nc12 (centres unmarked) [Compound 1012] | ≥ 0.1 | < 0.01 | – | –
27 | CO[C@H](C)c1cc2cnc(Nc3ccc(N4CCC(O)CC4)nn3)nc2c(NC(C)C)n1 [Compound 201] | – | – | ≥ 0.1 | 0.01 to 0.1
28 | C[C@@H](O)c1cc2cnc(Nc3ccc(OCCN(C)C)cn3)nc2c(NC2CCC(C)(C)OC2)n1 (some centres unmarked) [Compound 600] | – | – | ≥ 0.1 | < 0.01
29 | C[C@@H](O)c1cc2cnc(Nc3ccc(CN4CCC(CO)CC4)cn3)nc2c(NC(C)(C)C)n1 [Compound 1021] | ≥ 0.1 | < 0.01 | – | –
30 | CO[C@H](C)c1cc2cnc(Nc3ccc(CC(N)=O)cn3)nc2c(NC(C)C)n1 [Compound 231] | – | – | ≥ 0.1 | 0.01 to 0.1
31 | COCC(C)(C)Nc1nc(C(F)F)cc2cnc(Nc3ccc(N4CCNCC4)cn3)nc12 [Compound 31] | – | – | ≥ 0.1 | < 0.01
32 | C[C@@H](O)c1cc2cnc(Nc3ccc(N4CCCC(C(=O)O)C4)nn3)nc2c(N[C@H]2CC[C@H](O)CC2)n1 (some centres unmarked) [Compound 1218] | ≥ 0.1 | < 0.01 | – | –
33 | CC(C)Nc1nc(C(F)F)cc2cnc(Nc3ccc(CCCN4CCCC4=O)cn3)nc12 [Compound 167] | – | – | ≥ 0.1 | < 0.01
34 | CC(=O)N(Cc1ccc(Nc2ncc3cc(C(F)F)nc(NC(C)C)c3n2)nc1)CC1CCOCC1 [Compound 144] | – | – | ≥ 0.1 | < 0.01
35 | CC(C)Nc1nc([C@@H](C)O)cc2cnc(Nc3ccc(N4CCNCC(C)C4=O)cn3)nc12 (some centres unmarked) [Compound 665] | ≥ 0.1 | < 0.01 | – | –
36 | CC(C)Nc1nc([C@@H](C)O)cc2cnc(Nc3ccc(C(=O)N4CCNC[C@@H]4C)cn3)nc12 [Compound 1166] | ≥ 0.1 | < 0.01 | – | –
37 | CO[C@H](C)c1cc2cnc(Nc3ccc(N4CCN[C@@H](C)C4=O)cn3)nc2c(NC(C)C)n1 [Compound 463] | – | – | ≥ 0.1 | < 0.01
38 | CC(O)c1cc2cnc(Nc3ccc(N4CCNCC4)cn3)nc2c(N(C)C2CCCC2)n1 (centres unmarked) [Compound 10] | – | – | ≥ 0.1 | < 0.01
39 | COC[C@H](C)Nc1nc([C@@H](C)O)cc2cnc(Nc3ccc(N4CCNCC4=O)cn3)nc12 [Compound 752] | ≥ 0.1 | 0.01 to 0.1 | – | –
40 | CC(C)Nc1nc([C@@H](C)O)cc2cnc(Nc3ccc(N(C)CCN(C)C)cn3)nc12 [Compound 1228] | ≥ 0.1 | < 0.01 | – | –

Row | SMILES | IC50 (CDK2/cyclin A2; [1]) [µM] | IC50 (CDK4/cyclin D3; [2]) [µM] | IC50 (CDK2/cyclin A2; [3]) [µM] | IC50 (CDK4/cyclin D3; [4]) [µM]
41 | CC(C)Nc1nc([C@@H](C)O)cc2cnc(Nc3ccc(CC(=O)N4CCNCC4)cn3)nc12 [Compound 519] | – | – | ≥ 0.1 | < 0.01
42 | CC(C)Nc1nc([C@@H](C)O)cc2cnc(Nc3ccc(N4CCN(C(C)CO)CC4)nn3)nc12 (some centres unmarked) [Compound 588] | – | – | ≥ 0.1 | < 0.01
43 | CO[C@H](C)c1cc2cnc(Nc3ccc(N4CCN(C(C)C#N)CC4)nn3)nc2c(NC(C)C)n1 (some centres unmarked) [Compound 907] | ≥ 0.1 | < 0.01 | – | –
44 | C[C@@H](O)c1cc2cnc(Nc3ccc(N4CCNCC4=O)cn3)nc2c(NC2CCOC(C)(C)C2)n1 (some centres unmarked) [Compound 692] | ≥ 0.1 | < 0.01 | – | –
45 | CC(C)Nc1nc([C@@H](C)O)cc2cnc(Nc3ccc(C4COCCN4)cn3)nc12 (some centres unmarked) [Compound 798] | ≥ 0.1 | < 0.01 | – | –
46 | CC(C)Nc1nc(C(C)O)cc2cnc(Nc3ccc(N4CCOCC4)cn3)nc12 (centres unmarked) [Compound 72] | – | – | ≥ 0.1 | < 0.01
47 | CC(C)Nc1nc([C@@H](C)O)cc2cnc(Nc3ccc(N4CCN(C(=O)CN(C)C)CC4)nn3)nc12 [Compound 1191] | ≥ 0.1 | < 0.01 | – | –
48 | CNC(=O)CN1CCN(Cc2ccc(Nc3ncc4cc([C@@H](C)OC)nc(NC(C)C)c4n3)nc2)CC1 [Compound 971] | ≥ 0.1 | < 0.01 | – | –
49 | CC(C)Nc1nc([C@@H](C)O)cc2cnc(Nc3ccc(N4CCC(CCC(=O)O)CC4)nn3)nc12 [Compound 828] | ≥ 0.1 | 0.01 to 0.1 | – | –
50 | CCNc1nc([C@@H](C)O)cc2cnc(Nc3ccc(CN4CCN(CCO)C(C)(C)C4)cn3)nc12 [Compound 1169] | ≥ 0.1 | < 0.01 | – | –
51 | CC(C)Nc1nc(C2CCOC2)cc2cnc(Nc3ccc(CN4CCN(CCO)CC4)cn3)nc12 (centres unmarked) [Compound 1010] | ≥ 0.1 | < 0.01 | – | –
52 | CCNc1nc([C@@H](C)O)cc2cnc(Nc3ccc4c(n3)CCN(CCN(C)C)C4)nc12 [Compound 1139] | ≥ 0.1 | < 0.01 | – | –
53 | CO[C@H](C)c1cc2cnc(Nc3ccc(N4CCNCC4)nn3)nc2c(N[C@H]2CC[C@H](C(=O)O)CC2)n1 [Compound 339] | – | – | ≥ 0.1 | 0.01 to 0.1
54 | CC(O)CN1CCN(c2ccc(Nc3ncc4cc([C@@H](C)O)nc(NC(C)C)c4n3)nc2)C(=O)C1 (some centres unmarked) [Compound 636] | ≥ 0.1 | < 0.01 | – | –
55 | CN(c1nc(C(F)F)cc2cnc(Nc3ccc(N4CCNCC4)cn3)nc12)C1CCCC1 [Compound 5] | – | – | ≥ 0.1 | < 0.01
56 | CC(O)c1cc2cnc(Nc3ccc(N4CCNCC4)cn3)nc2c(NCC(F)F)n1 (centres unmarked) [Compound 36] | – | – | ≥ 0.1 | ≥ 0.1
57 | CC(C)Nc1nc(C(F)F)cc2cnc(Nc3ccc(N4CCC(N)C4)cn3)nc12 (centres unmarked) [Compound 52] | – | – | 0.01 to 0.1 | < 0.01
58 | C[C@@H](O)c1cc2cnc(Nc3ccc(CN4CCC(CO)CC4)cn3)nc2c(NCC2CC2)n1 [Compound 1149] | ≥ 0.1 | < 0.01 | – | –
